Reference: US20110186457A1, “NOVEL SINGLE UNIT CARBAPENEM AMINOGLYCOSIDE FORMULATIONS” (priority 2008, published 2011)
In brackets after ≈: the same amount, converted by molar mass. Several values for one entry are separate records, joined by “and”; a condition that tells them apart may be missing. Equal values may be shown once. Read-outs that look alike come from different tables or passages of the source.

Tests used:
[1] = test system: renal tissue of Mus musculus mice; assay: Oxidative stress and kidney toxicity markers in renal tissue after repeated antibiotic administration to mice; type: in vivo
C. braakii (2690 MTCC) = assay: Zone of inhibition; type: cell-based; set-up: unit not given here
From the text: (§1) Where X and Y are respective additive agents mixed in the formulation with water for injection.

P. vulgaris (426 MTCC) = assay: Zone of inhibition; type: cell-based; set-up: unit not given here
From the text: as §1

E. coli (1687 MTCC) = assay: Zone of inhibition; type: cell-based; set-up: unit not given here
From the text: as §1

S. aureus (737 MTCC) = assay: Zone of inhibition; type: cell-based; set-up: unit not given here
From the text: as §1

A. baumannii (1425 MTCC) = assay: Zone of inhibition; type: cell-based; set-up: unit not given beside the values
From the text: as §1

[2] = test system: K. pneumoniae (10031 ATCC); assay: Zone of inhibition; type: cell-based; set-up: unit not given beside the values
From the text: as §1

[3] = test system: P. aeruginosa (1688 MTCC); assay: Zone of inhibition; type: cell-based; set-up: unit not given beside the values
From the text: as §1

C. braakii MTCC 2690 = assay: In-vitro microbial efficacy (MIC); type: cell-based
MRSA = assay: In-vitro microbial efficacy (MIC); type: cell-based
E. cloacae MTCC 509 = assay: In-vitro microbial efficacy (MIC); type: cell-based
M. smegmatis MTCC 995 = assay: In-vitro microbial efficacy (MIC); type: cell-based
A. baumanii MTCC 1425 = assay: In-vitro microbial efficacy (MIC); type: cell-based
P. aeruginosa MTCC 1688 = assay: In-vitro microbial efficacy (MIC); type: cell-based
[4] = test system: K. pneumoniae 10031(ATCC); assay: In-vitro microbial efficacy (MIC); type: cell-based
P. vulgaris MTCC 426 = assay: In-vitro microbial efficacy (MIC); type: cell-based
N. mucosa MTCC 1722 = assay: In-vitro microbial efficacy (MIC); type: cell-based
E. coli MTCC 1687 = assay: In-vitro microbial efficacy (MIC); type: cell-based
B. subtilis MTCC 736 = assay: In-vitro microbial efficacy (MIC); type: cell-based
S. aureus MTCC 737 = assay: In-vitro microbial efficacy (MIC); type: cell-based

SMILES: NCC[C@H](O)C(=O)N[C@@H]1C[C@H](N)[C@@H](O[C@H]2O[C@H](CN)[C@@H](O)[C@H](O)[C@H]2O)[C@H](O)[C@H]1O[C@H]1O[C@H](CO)[C@@H](O)[C@H](N)[C@H]1O [Amikacin]
- Catalase activity in renal tissue ([1]; mouse, in vivo): decrease
- Glutathione reductase activity in renal tissue ([1]; mouse, in vivo): decrease
- MDA activity in renal tissue ([1]; mouse, in vivo): increase
- SOD activity in renal tissue ([1]; mouse, in vivo): decrease

SMILES: C[C@@H](O)[C@H]1C(=O)N2C(C(=O)O)=C(S[C@@H]3CN[C@H](C(=O)Nc4cccc(C(=O)O)c4)C3)[C@H](C)[C@H]12 [Ertapenem]
- Zone of Inhibition (C. braakii (2690 MTCC); drug concentration 0.005 mcg): 10.52
- Zone of Inhibition (C. braakii (2690 MTCC); drug concentration 0.05 mcg): 18.95
- Zone of Inhibition (C. braakii (2690 MTCC); drug concentration 0.5 mcg): 27.88
- Zone of Inhibition (P. vulgaris (426 MTCC); drug concentration 0.005 mcg): 9.54
- Zone of Inhibition (P. vulgaris (426 MTCC); drug concentration 0.05 mcg): 16.74
- Zone of Inhibition (P. vulgaris (426 MTCC); drug concentration 0.5 mcg): 18.50
- Zone of Inhibition (E. coli (1687 MTCC); drug concentration 0.005 mcg): 10.10
- Zone of Inhibition (E. coli (1687 MTCC); drug concentration 0.05 mcg): 15.49
- Zone of Inhibition (E. coli (1687 MTCC); drug concentration 0.5 mcg): 21.45
- Zone of Inhibition (E. coli (1687 MTCC); drug concentration 1.0 mcg): 23.39
- Zone of Inhibition (S. aureus (737 MTCC); drug concentration 0.005 mcg): 9.44
- Zone of Inhibition (S. aureus (737 MTCC); drug concentration 0.05 mcg): 14.55
- Zone of Inhibition (S. aureus (737 MTCC); drug concentration 0.5 mcg): 21.33
- Zone of Inhibition (A. baumannii (1425 MTCC); drug concentration 0.005 mcg): Nil
- Zone of Inhibition (A. baumannii (1425 MTCC); drug concentration 0.05 mcg): 13.37
- Zone of Inhibition (A. baumannii (1425 MTCC); drug concentration 0.5 mcg): 18.25
- Zone of Inhibition ([2]; drug concentration 0.005 mcg): Nil
- Zone of Inhibition ([2]; drug concentration 0.05 mcg): Nil
- Zone of Inhibition ([2]; drug concentration 0.5 mcg): 15.90
- Zone of Inhibition ([3]; drug concentration 0.005 mcg): Nil
- Zone of Inhibition ([3]; drug concentration 0.05 mcg): Nil
- Zone of Inhibition ([3]; drug concentration 0.5 mcg): Nil

SMILES: NC[C@H]1O[C@H](O[C@H]2[C@H](O)[C@@H](O[C@H]3O[C@H](CO)[C@@H](O)[C@H](N)[C@H]3O)[C@H](N)C[C@@H]2N)[C@H](N)C[C@@H]1O [Tobramycin]
- Catalase activity in renal tissue ([1]; mouse, in vivo): decrease
- Glutathione reductase activity in renal tissue ([1]; mouse, in vivo): decrease
- MDA activity in renal tissue ([1]; mouse, in vivo): increase
- SOD activity in renal tissue ([1]; mouse, in vivo): decrease

SMILES: CCN[C@@H]1C[C@H](N)[C@@H](O[C@H]2O[C@H](CN)CC[C@H]2N)[C@H](O)[C@H]1O[C@H]1OC[C@](C)(O)[C@H](NC)[C@H]1O [Etimicin]
- MIC (C. braakii MTCC 2690): 2 µg/mL (≈ 4.19 µM)
- MIC (MRSA): 4 µg/mL (≈ 8.38 µM)
- MIC (E. cloacae MTCC 509): 2 µg/mL (≈ 4.19 µM)
- MIC (M. smegmatis MTCC 995): 2 µg/mL (≈ 4.19 µM)
- Creatnine level in renal tissue ([1]; Mus musculus mice, repeated administration for 7 days consecutively (FIG. 5)): significantly decreased
- SOD activity in renal tissue ([1]; mice, after administration of antibiotic (FIG. 1)): decrease
- Catalase activity in renal tissue ([1]; mice, after administration of antibiotic (FIG. 2)): decrease
- MDA activity in renal tissue ([1]; mice, after administration of antibiotic (FIG. 3)): increase
- Glutathione reductase activity in renal tissue ([1]; mice, after administration of antibiotic (FIG. 4)): decrease
- MIC (A. baumanii MTCC 1425): 2 µg/mL (≈ 4.19 µM)
- MIC (P. aeruginosa MTCC 1688): 8 µg/mL (≈ 16.8 µM)
- MIC [4]: 8 µg/mL (≈ 16.8 µM)
- MIC (P. vulgaris MTCC 426): 4 µg/mL (≈ 8.38 µM)
- MIC (N. mucosa MTCC 1722): 1 µg/mL (≈ 2.09 µM)
- MIC (E. coli MTCC 1687): 0.125 µg/mL (≈ 0.262 µM)
- MIC (B. subtilis MTCC 736): 8 µg/mL (≈ 16.8 µM)
- Zone of Inhibition (C. braakii (2690 MTCC); drug concentration 0.005 mcg): Nil
- Zone of Inhibition (C. braakii (2690 MTCC); drug concentration 0.05 mcg): Nil
- Zone of Inhibition (C. braakii (2690 MTCC); drug concentration 0.5 mcg): 18.70 and 19.10
- Zone of Inhibition (P. vulgaris (426 MTCC); drug concentration 0.005 mcg): Nil
- Zone of Inhibition (P. vulgaris (426 MTCC); drug concentration 0.05 mcg): Nil
- Zone of Inhibition (P. vulgaris (426 MTCC); drug concentration 0.5 mcg): 15.19 and 13.97
- Zone of Inhibition (E. coli (1687 MTCC); drug concentration 0.005 mcg): Nil
- Zone of Inhibition (E. coli (1687 MTCC); drug concentration 0.05 mcg): 9.42 and 9.31
- Zone of Inhibition (E. coli (1687 MTCC); drug concentration 0.5 mcg): 16.50 and 15.70
- Zone of Inhibition (E. coli (1687 MTCC); drug concentration 1.0 mcg): 17.57
- Zone of Inhibition (S. aureus (737 MTCC); drug concentration 0.005 mcg): Nil
- Zone of Inhibition (S. aureus (737 MTCC); drug concentration 0.05 mcg): 11.15 and 10.12
- Zone of Inhibition (S. aureus (737 MTCC); drug concentration 0.5 mcg): 17.50 and 16.65
- Zone of Inhibition (A. baumannii (1425 MTCC); drug concentration 0.005 mcg): Nil
- Zone of Inhibition (A. baumannii (1425 MTCC); drug concentration 0.5 mcg): 13.5 and 12.88
- Zone of Inhibition ([2]; drug concentration 0.005 mcg): nil and Nil
- Zone of Inhibition ([2]; drug concentration 0.05 mcg): nil and Nil
- Zone of Inhibition ([2]; drug concentration 0.5 mcg): 16.64 and 16.50
- Zone of Inhibition ([3]; drug concentration 0.005 mcg): Nil
- Zone of Inhibition ([3]; drug concentration 0.05 mcg): Nil
- Zone of Inhibition ([3]; drug concentration 0.5 mcg): 12.49 and 12.60
- MIC (S. aureus MTCC 737): 8 µg/mL (≈ 16.8 µM)

SMILES: C[C@@H](O)[C@H]1C(=O)N2C(C(=O)O)=C(S[C@@H]3CN[C@H](C(=O)N(C)C)C3)[C@H](C)[C@H]12 [Meropenem]
- MIC (C. braakii MTCC 2690; Citrobacter braakii, MTCC2690, read-out: MIC): 0.25 µg/mL (≈ 0.652 µM)
- MIC (MRSA; Staphylococcus aureus, read-out: MIC): 0.5 µg/mL (≈ 1.3 µM)
- MIC (E. cloacae MTCC 509; Enterobacter cloacae, MTCC509, read-out: MIC): 0.125 µg/mL (≈ 0.326 µM)
- MIC (M. smegmatis MTCC 995; Mycolicibacterium smegmatis, MTCC995, read-out: MIC): 0.25 µg/mL (≈ 0.652 µM)
- Catalase activity in renal tissue ([1]; mouse, in vivo): decrease
- Glutathione reductase activity in renal tissue ([1]; mouse, in vivo): decrease
- MDA activity in renal tissue ([1]; mouse, in vivo): increase
- SOD activity in renal tissue ([1]; mouse, in vivo): decrease
- MIC (A. baumanii MTCC 1425; Acinetobacter baumannii, MTCC1425, read-out: MIC): 0.125 µg/mL (≈ 0.326 µM)
- MIC (P. aeruginosa MTCC 1688; Pseudomonas aeruginosa, MTCC1688, read-out: MIC): 2 µg/mL (≈ 5.22 µM)
- MIC ([4]; Klebsiella pneumoniae, read-out: MIC): 1 µg/mL (≈ 2.61 µM)
- MIC (P. vulgaris MTCC 426; Proteus vulgaris, MTCC426, read-out: MIC): 0.0625 µg/mL (≈ 0.163 µM)
- MIC (N. mucosa MTCC 1722; read-out: MIC): 0.125 µg/mL (≈ 0.326 µM)
- MIC (E. coli MTCC 1687; Escherichia coli, MTCC1687, read-out: MIC): 0.0625 µg/mL (≈ 0.163 µM)
- MIC (B. subtilis MTCC 736; Bacillus subtilis, MTCC736, read-out: MIC): 2 µg/mL (≈ 5.22 µM)
- Zone of Inhibition (C. braakii (2690 MTCC); drug concentration 0.005 mcg): 9.35
- Zone of Inhibition (C. braakii (2690 MTCC); drug concentration 0.05 mcg): 23.35
- Zone of Inhibition (C. braakii (2690 MTCC); drug concentration 0.5 mcg): 28.60
- Zone of Inhibition (P. vulgaris (426 MTCC); drug concentration 0.005 mcg): 10.84
- Zone of Inhibition (P. vulgaris (426 MTCC); drug concentration 0.05 mcg): 18.01
- Zone of Inhibition (P. vulgaris (426 MTCC); drug concentration 0.5 mcg): 21.32
- Zone of Inhibition (E. coli (1687 MTCC); drug concentration 0.005 mcg): 8.88
- Zone of Inhibition (E. coli (1687 MTCC); drug concentration 0.05 mcg): 15.70
- Zone of Inhibition (E. coli (1687 MTCC); drug concentration 0.5 mcg): 22.97
- Zone of Inhibition (S. aureus (737 MTCC); drug concentration 0.005 mcg): 11.45
- Zone of Inhibition (S. aureus (737 MTCC); drug concentration 0.05 mcg): 16.29
- Zone of Inhibition (S. aureus (737 MTCC); drug concentration 0.5 mcg): 22.76
- Zone of Inhibition (A. baumannii (1425 MTCC); drug concentration 0.005 mcg): Nil
- Zone of Inhibition (A. baumannii (1425 MTCC); drug concentration 0.05 mcg): 14.50
- Zone of Inhibition (A. baumannii (1425 MTCC); drug concentration 0.5 mcg): 19.81
- Zone of Inhibition ([2]; drug concentration 0.005 mcg): Nil
- Zone of Inhibition ([2]; drug concentration 0.05 mcg): 14.36
- Zone of Inhibition ([2]; drug concentration 0.5 mcg): 23.87
- Zone of Inhibition ([3]; drug concentration 0.005 mcg): Nil
- Zone of Inhibition ([3]; drug concentration 0.05 mcg): 13.64
- Zone of Inhibition ([3]; drug concentration 0.5 mcg): 21.85
- MIC (S. aureus MTCC 737; Staphylococcus aureus, MTCC737, read-out: MIC): 0.5 µg/mL (≈ 1.3 µM)
